# PubChem BioAssay AID743254 (The Scripps Research Institute Molecular Screening Center, 2014)
# Activity calls are given as the source filed them.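 Rule for the calls: active = half-inhibition concentration IC50 of 10 µM or lower; inactive = IC50 above 10 µM.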
# Target: Disintegrin and metalloproteinase domain-containing protein 10 (Homo sapiens) (UniProt O14672)
# Assay: ADAM10 inhibitors, peptide cleavage, dose response, biochemical, QFRET (AID 743254)
# Conditions: EDANS fluorescence, 3 h
# Chain of Disintegrin and metalloproteinase domain-containing protein 10 (Homo sapiens) (O14672 214-748 limits assumed): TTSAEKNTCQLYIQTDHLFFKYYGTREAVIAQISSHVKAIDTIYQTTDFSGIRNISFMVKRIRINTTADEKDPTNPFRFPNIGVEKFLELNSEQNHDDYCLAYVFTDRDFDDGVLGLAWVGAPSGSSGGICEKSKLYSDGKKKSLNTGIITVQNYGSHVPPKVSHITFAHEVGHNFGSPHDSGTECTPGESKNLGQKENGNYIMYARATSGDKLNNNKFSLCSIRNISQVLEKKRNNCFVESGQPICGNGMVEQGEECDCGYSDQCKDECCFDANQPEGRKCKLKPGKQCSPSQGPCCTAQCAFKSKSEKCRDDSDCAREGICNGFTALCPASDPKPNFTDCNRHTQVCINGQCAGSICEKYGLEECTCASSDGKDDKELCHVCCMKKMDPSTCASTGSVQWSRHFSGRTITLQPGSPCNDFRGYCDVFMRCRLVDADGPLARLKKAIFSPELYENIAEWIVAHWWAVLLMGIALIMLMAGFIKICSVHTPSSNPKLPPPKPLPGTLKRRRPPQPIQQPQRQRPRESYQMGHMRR
row,IC50,SMILES
1,inactive,O=C(OCc1csc(Nc2ccccc2)n1)c1ccc(Cl)cc1
2,> 69.5 µM (inactive),COc1ccc(-c2ccc(-c3noc(-c4cccc(OC)c4)n3)c(OC)n2)cc1
3,> 69.5 µM (inactive),Cc1cccc(C)c1OCC(O)Cn1c2ccccc2c2ccccc21 (stereo not given)
4,inactive,CCCN(CC(=O)Nc1cc(Cl)cc(Cl)c1)CC(=O)Nc1ccc(F)c(F)c1F
5,inactive,COc1ccc(CCN2C(=O)c3[nH]nc(-c4ccccc4O)c3C2c2cccc(Cl)c2)cc1 (stereo not given)
6,> 69.5 µM (inactive),O=C(Nc1ccc(N2CCCC2)c(S(=O)(=O)Nc2cccc(C(F)(F)F)c2)c1)c1cccs1
7,inactive,O=[N+]([O-])c1ccc(S(=O)(=O)Nc2ccc(-c3csc(-c4ccccc4)n3)cc2)cc1
8,inactive,O=C(NNc1ccccc1Br)C(O)(c1cccc(C(F)(F)F)c1)c1cccc(C(F)(F)F)c1
9,7.23 µM,COc1ccc(C(Nc2cc(C)ccn2)c2ccc3ccc(C)nc3c2O)cc1 (stereo not given)
10,> 69.5 µM (inactive),C(=C\c1ccccc1)/C=N/Nc1nc2ccccc2s1
11,inactive,O=[N+]([O-])c1ccc(O)c(/C=N/Nc2ccccn2)c1
12,> 69.5 µM (inactive),O=C(NNC(=O)c1cc(-c2ccccc2)nc2ccccc12)Nc1cccc(Cl)c1
13,inactive,Cc1cc(C)c(CSc2ncc(-c3ccc([N+](=O)[O-])cc3)[nH]2)c(C)c1
14,> 69.5 µM (inactive),N#Cc1c(Cl)nc(N/N=C/c2ccccc2)c(Cl)c1Cl
15,> 69.5 µM (inactive),O=C1CC(N(CCc2ccccc2)C(=S)Nc2cc(Cl)ccc2Cl)C(=O)N1c1c(Cl)cccc1Cl (stereo not given)
16,inactive,CC(=O)c1ccc(N2CCC(c3cc(-c4ccc(Cl)cc4Cl)n[nH]3)CC2)c([N+](=O)[O-])c1
17,9.61 µM,COc1ccc(-c2cn[nH]c2-c2ccc(OCc3ccccc3)cc2O)cc1
18,7.45 µM,C=C(C)COc1ccc(-c2[nH]ncc2Oc2cccc(OC)c2)c(O)c1

row,IC50,SMILES
1,> 69.5 µM (inactive),O=[N+]([O-])c1ccc(-c2nc(-c3cccs3)c(-c3cccs3)[nH]2)cc1
2,8.8 µM,O=[N+]([O-])c1cccnc1N1CCC(c2cc(-c3ccc(Cl)cc3)n[nH]2)CC1
3,> 69.5 µM (inactive),O=C(NNC(=O)c1cc(-c2ccc(Cl)cc2)nc2ccccc12)c1csc(N2CCOCC2)n1
4,inactive,CCc1ccc(NC(=O)c2ccc(F)c(S(=O)(=O)NCC3COc4ccccc4O3)c2)cc1 (stereo not given)
5,inactive,Cc1ccc(NS(=O)(=O)c2ccc(Cl)c(NC(=S)NC(=O)C3CCCCC3)c2)cc1Cl
6,7.43 µM,O=C(Nc1ccc(OCC(F)(F)C(F)F)c(C(F)(F)F)c1)c1ccc(Cl)cc1
7,> 69.5 µM (inactive),COC(=O)c1ccc(N2CCC(c3cc(-c4ccc(OC)cc4)n[nH]3)CC2)c([N+](=O)[O-])c1
8,inactive,O=[N+]([O-])c1cc(S(=O)(=O)Nc2ccccc2)ccc1N1CCN(c2ccccc2)CC1
9,inactive,CCOC(=O)c1c(CSc2ccc(C)cc2)oc2ccc(O)cc12
10,> 69.5 µM (inactive),COc1cc(/C=N/O)cc(Br)c1OCc1ccc(Cl)cc1
11,> 69.5 µM (inactive),Fc1c(F)c(C(F)(F)F)c(F)c(F)c1N/N=C\c1cccs1
12,inactive,O=C1OCCN1C(=O)[C@H]1[C@H](c2ccc([N+](=O)[O-])cc2)C(c2cccc(Cl)c2)=NN1c1ccc(Br)cc1
13,> 69.5 µM (inactive),Oc1ccc(Cl)cc1-c1cc(-c2cccc(Br)c2)n[nH]1
14,inactive,O=C1OCCN1C(=O)[C@H]1[C@H](c2ccc([N+](=O)[O-])cc2)C(c2ccc(F)cc2)=NN1c1ccc(Br)cc1
15,5.44 µM,C=C(C)COc1ccc(-c2[nH]ncc2Oc2ccc(OC)cc2)c(O)c1
16,> 69.5 µM (inactive),O=C(Nc1cccc(S(=O)(=O)Nc2ccc(Cl)cc2)c1)c1cc2c(s1)CCCC2
17,> 69.5 µM (inactive),COc1ccc(S(=O)(=O)Nc2cc3c4c(oc3c3ccccc23)CC(C)(C)CC4=O)cc1
